Measurements: US20200377505A1, “BENZIMIDAZOLES AND AZA-BENZIMIDAZOLES, AND METHODS OF USE THEREOF” (Goldfinch Bio., Inc., priority 2017, published 2020)

Key:
[1] = molecular target: T1, human TRPC6 (Homo sapiens, UniProt Q9Y210); test: TRPC6 fluorescence-based assay (Ca2+ flux assay in FLIPR format), cells overexpressing TRPC6; assay type: cell-based; settings: 5 μM of test compound, following Carbachol stimulation
T1 construct: expressed in transfected cells; host or cells: HEK 293
T1 sequence (Q9Y210 1-931): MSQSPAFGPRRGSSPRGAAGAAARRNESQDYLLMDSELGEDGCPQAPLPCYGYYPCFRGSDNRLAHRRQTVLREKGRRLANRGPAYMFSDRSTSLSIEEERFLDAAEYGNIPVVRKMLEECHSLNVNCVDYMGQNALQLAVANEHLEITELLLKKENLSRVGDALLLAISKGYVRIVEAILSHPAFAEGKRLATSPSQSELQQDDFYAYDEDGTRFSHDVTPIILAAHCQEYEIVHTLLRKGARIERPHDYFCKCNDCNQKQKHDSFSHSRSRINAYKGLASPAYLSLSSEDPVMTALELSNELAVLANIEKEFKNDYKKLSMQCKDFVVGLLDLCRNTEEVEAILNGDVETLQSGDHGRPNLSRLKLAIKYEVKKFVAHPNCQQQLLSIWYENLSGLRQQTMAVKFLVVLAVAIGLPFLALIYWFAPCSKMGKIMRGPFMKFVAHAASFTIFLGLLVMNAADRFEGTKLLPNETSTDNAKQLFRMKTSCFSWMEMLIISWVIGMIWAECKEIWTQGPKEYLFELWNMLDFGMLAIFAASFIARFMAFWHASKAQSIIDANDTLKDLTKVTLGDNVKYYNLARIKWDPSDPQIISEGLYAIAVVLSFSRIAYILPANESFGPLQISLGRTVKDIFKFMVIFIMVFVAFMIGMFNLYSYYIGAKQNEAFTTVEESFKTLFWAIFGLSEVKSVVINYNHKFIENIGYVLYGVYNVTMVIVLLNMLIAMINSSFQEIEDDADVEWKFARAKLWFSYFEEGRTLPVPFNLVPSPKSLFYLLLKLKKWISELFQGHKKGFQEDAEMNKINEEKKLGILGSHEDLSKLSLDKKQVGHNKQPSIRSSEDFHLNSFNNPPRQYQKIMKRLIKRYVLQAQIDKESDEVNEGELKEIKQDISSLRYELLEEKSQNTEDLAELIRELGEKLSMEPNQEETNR

[2] = molecular target: T2, human TRPC5 (Homo sapiens, UniProt Q9UL62); test: TRPC5 fluorescence-based assay (Ca2+ flux assay in FLIPR format), cells overexpressing TRPC5; assay type: cell-based; settings: 5 μM of test compound, following Carbachol stimulation
T2 construct: expressed in transfected cells; host or cells: HEK 293
T2 sequence (Q9UL62 1-973): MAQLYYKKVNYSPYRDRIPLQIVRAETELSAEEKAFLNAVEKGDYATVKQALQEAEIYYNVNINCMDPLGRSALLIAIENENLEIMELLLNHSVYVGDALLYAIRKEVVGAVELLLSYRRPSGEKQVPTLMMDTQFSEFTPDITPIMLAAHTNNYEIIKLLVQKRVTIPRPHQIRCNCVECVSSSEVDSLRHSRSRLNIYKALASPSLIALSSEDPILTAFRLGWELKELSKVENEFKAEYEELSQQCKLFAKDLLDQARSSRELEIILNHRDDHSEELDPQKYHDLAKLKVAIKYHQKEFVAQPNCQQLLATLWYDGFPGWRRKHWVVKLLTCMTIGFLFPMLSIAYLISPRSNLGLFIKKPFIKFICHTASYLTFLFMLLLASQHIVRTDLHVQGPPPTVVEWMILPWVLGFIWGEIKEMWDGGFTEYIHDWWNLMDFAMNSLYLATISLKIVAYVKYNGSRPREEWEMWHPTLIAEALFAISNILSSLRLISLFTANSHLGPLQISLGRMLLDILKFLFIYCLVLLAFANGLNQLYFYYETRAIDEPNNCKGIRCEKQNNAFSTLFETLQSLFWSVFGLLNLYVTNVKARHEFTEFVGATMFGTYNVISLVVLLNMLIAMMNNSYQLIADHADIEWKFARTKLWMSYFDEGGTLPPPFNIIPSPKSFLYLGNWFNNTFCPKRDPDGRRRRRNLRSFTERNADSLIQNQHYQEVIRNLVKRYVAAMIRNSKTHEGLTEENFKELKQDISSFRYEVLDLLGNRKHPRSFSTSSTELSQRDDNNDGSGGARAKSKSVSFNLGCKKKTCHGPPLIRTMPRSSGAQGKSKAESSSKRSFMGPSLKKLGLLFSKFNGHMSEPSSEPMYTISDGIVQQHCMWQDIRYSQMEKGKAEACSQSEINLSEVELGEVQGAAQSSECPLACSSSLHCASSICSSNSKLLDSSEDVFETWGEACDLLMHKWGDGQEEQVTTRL

Compound	inhibition at 5 µM [1]	inhibition at 5 µM [2]	Inhibition of TRPC6 (A) ([1]; 5 µM)	Inhibition of TRPC5 (A) ([2]; 5 µM)
COc1ccccc1Cn1c(C)nc2ccccc21	89.9%	73.4%	–	–
Cc1ccc(Cn2c(CN3CCC(CN)C3)nc3ccccc32)cc1 (stereo not drawn)	51%	51.8%	–	–
CCCn1c(NCc2ccccc2Cl)nc2ccccc21	29.8%	46%	–	–
COc1ccc(-n2c(SCC(=O)Nc3cccc(S(=O)(=O)N4CCOCC4)c3)nc3ccccc32)cc1	6.92%	69.6%	–	–
c1csc(CNc2nc3ccccc3n2CCN2CCCCC2)c1	16.5%	64.4%	–	–
CCOc1ccc(NCc2nc3ccccc3n2CCOc2ccccc2C)cc1	66.1%	37.5%	–	–
CC(C)CCn1c(-c2ccc(N)cc2)nc2ccccc21	27.2%	61.1%	–	–
CCC(CC)c1nc2ccccc2n1Cc1ccccc1	35.3%	34.9%	–	–
CCCCn1c(NCc2nc3ccccc3n2C)nc2ccccc21	30.4%	59.5%	–	–
CCOc1ccccc1Nc1nc2ccccc2n1C(C)C	40.7%	45.1%	–	–
Clc1ccc(Cn2cnc3ccccc32)c(Cl)c1	85.5%	63.5%	–	–
CCCn1c(NCc2ccc(N(CC)CC)cc2)nc2ccccc21	74.7%	64.9%	–	–
CCN(CC)CCn1c(NCc2ccc(Cl)cc2)nc2ccccc21	57.1%	62%	–	–
Nc1nc2ccccc2n1Cc1ccc(Cl)c(Cl)c1	84.3%	52.4%	–	–
C=C(C)Cn1c(-c2ccc(N(C)C)cc2)nc2ccccc21	45%	45%	–	–
COc1ccc(Cc2nc3ccccc3n2C(C)c2ccccc2)cc1 (stereo not drawn)	45%	51%	–	–
CCN(CC)CCn1c(NCc2ccccc2OC)nc2ccccc21	21.9%	63.4%	–	–
Brc1cccc(CNc2nc3ccccc3n2CCN2CCOCC2)c1	18.5%	45.8%	–	–
COc1ccc(CNc2nc3ccccc3n2Cc2ccc(Cl)cc2)cc1OC	31.3%	53.4%	–	–
Nc1nc2ccccc2n1Cc1ccccc1F	34.8%	48.4%	–	–
CCCn1c(COc2ccccc2)nc2ccccc21	22.8%	30.2%	–	–

Compound	inhibition at 5 µM [1]	inhibition at 5 µM [2]	Inhibition of TRPC6 (A) ([1]; 5 µM)	Inhibition of TRPC5 (A) ([2]; 5 µM)
CC(C)(C)NC(=O)Cn1c(NCc2ccccc2)nc2ccccc21	3.97%	51%	–	–
COc1ccc(CCN2CCC(Nc3nc4ccccc4n3CCc3ccc(OC)cc3)CC2)cc1	68.9%	63.3%	–	–
CCN(CC)c1ccc(CNc2nc3ccccc3n2CCN2CCCCC2)cc1	65.7%	61.2%	–	–
CC(C)c1ccc(CNc2nc3ccccc3n2C)cc1	80.6%	50%	–	–
Fc1cccc(Cl)c1Cn1c(-c2ccco2)nc2ccccc21	61.7%	47.9%	–	–
Cn1c(NCc2cccc3ccccc23)nc2ccccc21	27.5%	45.5%	–	–
CCCn1c(-c2ccc(Br)cc2)nc2ccccc21	82.8%	61.4%	–	–
CCn1c(Cc2ccc(OC)c(OC)c2)nc2ccccc21	94%	59%	–	–
Clc1ccc(Cn2c(NCc3cccs3)nc3ccccc32)cc1	37.5%	72%	–	–
C#CCn1c(Cc2ccc(OC)c(OC)c2)nc2ccccc21	91.5%	66%	–	–
COc1ccc(CNc2nc3ccccc3n2C)c(OC)c1	19.4%	41.3%	–	–
CCC(=O)NCCc1nc2ccccc2n1Cc1ccc(F)cc1	2.78%	27%	–	–
Cc1ccc(NC(=O)Cn2c(C)nc3ccccc32)cc1	81.8%	32.1%	–	–
Cc1ccccc1OCCn1c(C)nc2ccccc21	76.2%	70%	–	–
Cc1cccc(OCCn2c(Cc3ccccc3)nc3ccccc32)c1	52.9%	56.4%	–	–
CCCCn1c(NCc2cccs2)nc2ccccc21 [drawing 82]	–	–	72.31%	65.84%
CCN(CC)CCn1c(NCc2cccc(Br)c2)nc2ccccc21	69.8%	62.9%	–	–
CCN(CC)CCn1c(NCc2ccc(OC)cc2OC)nc2ccccc21	43.5%	60.9%	–	–
CC(C)n1c(Nc2ccccc2)nc2ccccc21	14.5%	35.7%	–	–
CC(C)n1c(NCc2ccccc2)nc2ccccc21	22.4%	48.4%	–	–
Cc1ccc(Cn2c(C(C)(C)C)nc3ccccc32)cc1	27.7%	39.7%	–	–

Compound	inhibition at 5 µM [1]	inhibition at 5 µM [2]	Inhibition of TRPC6 (A) ([1]; 5 µM)	Inhibition of TRPC5 (A) ([2]; 5 µM)
CCCCCn1c(NCc2ccc(N(C)C)cc2)nc2ccccc21	81.9%	62.7%	–	–
COCc1ccccc1Cn1cnc2ccccc21	83.5%	61.3%	–	–
Cn1c(NCc2c[nH]c3ccccc23)nc2ccccc21	27.7%	66.8%	–	–
CC(C)(C)C(=O)NCCc1nc2ccccc2n1Cc1ccc(Cl)cc1	-7.07%	38.9%	–	–
CCCn1c(NCc2ccco2)nc2ccccc21	14.9%	40.7%	–	–
COc1ccccc1CNc1nc2ccccc2n1C(C)C	53.9%	57.9%	–	–
CCn1c(NCc2ccc(Br)cc2)nc2ccccc21	77.3%	71.6%	–	–
OCCNc1nc2ccccc2n1CCOc1ccccc1	8.36%	40.7%	–	–
c1ccc(Cc2nc3ccccc3n2CCCOc2ccccc2)cc1	92.5%	85.9%	–	–
CCCn1c(NCc2nc3ccccc3n2C)nc2ccccc21	-6.21%	42.8%	–	–
Cn1c(CC(O)c2ccccc2)nc2ccccc21 (stereo not drawn)	-9.99%	42.3%	–	–
c1ccc(Cc2nc3ccccc3n2CCOc2ccccc2)cc1	17.7%	36.7%	–	–
CC(NCc1nc2ccccc2n1C)C12CC3CC(CC(C3)C1)C2 (stereo not drawn)	69.7%	55.2%	–	–
COCCn1c(SCC(=O)Nc2cccc3ncccc23)nc2ccccc21	83.6%	59.1%	–	–
Nc1nc2ccccc2n1CCOc1ccccc1Cl	53.7%	49.9%	–	–
Nc1ccc(-c2nc3ccccc3n2CCCOc2ccccc2)cc1	27.3%	38.6%	–	–
Cc1nc2ccccc2n1CCNC(=O)c1ccccc1SCc1ccsc1	80.8%	77.7%	–	–
Cn1c(=O)c2c(ncn2CC(=O)OCCCC(c2ccc(F)cc2)c2ccc(F)cc2)n(C)c1=O	60.7%	60%	–	–
Cc1nc2ccccc2n1CC(=O)Nc1ccc(Cl)cc1	70%	39.7%	–	–
COc1ccc(NCc2nc3ccccc3n2CCOc2ccccc2C)cc1	58.5%	44.9%	–	–
Cc1cc(NC(=O)Cn2c(NCc3ccccc3)nc3ccccc32)no1	22.8%	48%	–	–
